# Experimental data: PMC9369794 (Molecules, 2022)
# Tests used:
# Water dispersibility = type: physicochemical; conditions: distilled water, sonication
# Description: About 2 mg of the examined substance was dispersed in 40 mL of distilled water and the suspension was sonicated for 2 min. The addition of water was continued with 10 mL portions, after each portion the mixture was sonicated for 2 min. This process was continued till a homogenous solution was observed by naked eye. Then, the solution was let to stand for an hour to inspect any precipitate formation, but no changes occurred in any of the cases.
# [1] = TEAC assay using ABTS radical; conditions: 6 min, ratio of slopes to trolox (melatonin dissolved in EtOH); for TEAC from DMSO: stock in DMSO diluted with PBS pH 7.4, 37 °C; for TEAC from THF: stock in THF diluted with PBS pH 7.4, 37 °C
# Description: This method uses a redox reaction between ABTS^•+ radical cation and the examined antioxidants, which act as the reducing agents. […] As the carotenoids and the conjugates are poorly soluble in water, they were dissolved first either in small amounts of freshly distilled tetrahydrofuran (THF) or in dimethylsulfoxide (DMSO), and these stock solutions were diluted with phosphate-buffered saline (PBS) to the final nominal concentration.
# The TEAC values were determined in isotonic phosphate buffer of pH 7.4. The buffer solution was made by dissolving 9.55 g of DPBS powder in distilled water to form 1L of solution (composition: 0.138 M NaCl, 0.0027 M KCl, 0.0081 M Na2HPO4, 0.0015 M KH2PO4). The assay was performed according to a literature process with slight modifications. The ABTS^•+ radical cation was produced by reacting 7 mM 2,2′-azino-bis(3-ethylbenzothiazoline-6-sulfonic acid) and 2.45 mM potassium persulfate in water. The stock ABTS^•+ solution was prepared 12–16 h before the experiments, and stored at room temperature in dark. The absorbance of the ABTS^•+ solution was set to 0.70 ± 0.05 at 734 nm by a ca. 100-fold dilution with phosphate-buffered saline (PBS). […] The stock solutions were diluted with PBS such that equal amounts of the diluted solutions were added to the ABTS^•+ reagent to obtain final antioxidants concentrations of 0.3125, 0.625, 1.25, 2.50, 3.75, 5 μM, respectively. In the blank (0 μM), the solutions of the antioxidants were substituted with THF or DMSO.
# The antioxidants were incubated with ABTS^•+ solution at 37 °C for 6 min. During the reaction of ABTS^•+ with the antioxidants the absorbance of the solution decreases. The percentage inhibition of absorbance at 734 nm was calculated as (A0 − Aantioxidant)/A0, where A0 is the absorbance of the ABTS^•+ solution and Aantioxidant is the absorbance measured after the addition of the antioxidant. The determinations were carried out at each concentration in triplicate. The calculated values were plotted against the final concentration of the antioxidants. The slopes of the curves were compared with that for trolox, the TEAC value is the ratio of the slopes for the antioxidant and for trolox.
# [2] = Study of aggregation by UV-Vis spectrophotometry; type: physicochemical; conditions: for change of UV spectrum with increasing ratio of PBS: starting from THF solutions
# Description: It has been known for a long while that carotenoids or their derivatives can be prone to supramolecular organization in water or water-organic solvent mixtures. This behaviour is especially interesting because this higher organization can modulate or alter biological properties of carotenoids, as well [40]. A tendency to form supramolecular structures can be tested by recording the UV spectra in an organic solvent and increasing the ratio of water in the sample. […] We have some recent experience of such behaviour of carotenoid-flavonoid conjugates.
# All of our adducts were tested with the method above using tetrahydrofurane (THF) or dimethylsulfoxide (DMSO) with increasing ratio of phosphate-buffered saline (PBS), which was the medium of the antioxidant measurements. […]
# 1. Study of Aggregation by UV-Vis Spectrophotometry
# Starting from THF solutions: each conjugate was dissolved in freshly distilled THF and the solutions were diluted
# either with THF or THF-PBS mixtures to obain final solutions of identical carotenoid concentration. […]
# Figure S1. UV-spectra of 8’-apo-β-carotenol succinate ( 6) ( a) in THF and in THF-PBS mixtures ( 1:1 , 1:3); (b) in DMSO
# Figure S2. UV-spectra of zeaxanthin bissuccinate ( 7) ( a) in THF and in THF-PBS mixtures ( 1:1 , 1:3); (b) in DMSO and
# Figure S3. UV-spectra of zeaxanthin monosuccinate ( 11) ( a) in THF and in THF-PBS mixtures ( 1:1 , 1:3); (b) in DMSO […]
# [3] = Hydrodynamic diameter and colloidal stability of aggregates by dynamic light scattering; type: physicochemical; conditions: for mean size (hydrodynamic diameter) / zeta potential: 37 °C; for PDI: sd^2/mean size^2
# Description: In contrary, all spectra gave a hypsochromic shift and loss of fine-structure when the DMSO solutions were diluted with PBS, which refers to the formation of H-type (card-pack) aggregates (Figures S1–S12). Since DMSO-containing aqueous systems are more suitable for biological studies, we examined these solution by dynamic light scattering (DLS) spectroscopy to gain more information about the particles. The concentrations of the examined solutions were the same as used in the ABTS/TEAC measurements (0.3125–5.00 μM, see next section).
# Size determination of aggregates and the colloidal stability of the sample dispersions were determined by dynamic light scattering measurements, where the hydrodynamic diameter of particles, and zeta potential values were collected. The number-weighted size distribution indicated one main peak in each case, the polydispersity index (PDI) was calculated as sd^2/mean size^2. For the particle size analysis Malvern Zetasizer Nano S instrument and for the zeta potential determination Malvern Zetasizer Nano Z instrument were used (Malvern Panalytical Ltd., Great Malvern, Worcestershire, UK). The measurements were carried out in autocorrelation mode, and the following parameters were kept constant: scattering angle 173°, attenuator 11 and its factor 0.0146, measurement position 4.65 mm. The concentrations of sample dispersions were between 0.3125 and 5 µM. The dispersion medium was PBS. Each samples was examined after 6 min incubation period at 37 °C.
# [4] = FRAP assay for the antioxidant capacity; set-up: key to FRAP: slope of concentration-absorbance line divided by Trolox slope; conditions: stock in THF, acetate buffer pH 3.0, 37 °C, 15 min; ratio of slopes to trolox (melatonin in EtOH)
# Description: In the FRAP method the antioxidant reduces Fe^3+ to Fe^2+ in an acidic medium. These experiments were performed in an acetate buffer of pH 3.0, the stock solutions of the examined antioxidants were prepared in THF. The antioxidant capacities were compared to that of Trolox as a standard, just like in the ABTS assays.
# A modified literature process was used. The FRAP reagent should also be prepared freshly each day. 2,4,6-Tris(2-pyridyl)-s-triazin (TPTZ) was dissolved in a 200 mM HCl solution and diluted with water to get a final 40 mM HCl and 10 mM TPTZ concentration. For the preparation of the FRAP reagent 30 mL of 20 mM FeCl3 solution and 30 mL of 10 mM TPTZ solution were mixed, and 300 mL of 300 mM acetate buffer with pH 3.0 was added (a pH lower than usual was used to avoid the precipitation of the TPTZ). The FRAP reagent was incubated at 37 °C for 15 min. 150 μL of antioxidant dissolved in THF was mixed with 2.85 mL FRAP reagent solution, and incubated at 37 °C for 15 min in dark. Measurements were carried out at each antioxidant concentration (0, 7.5; 10; 12.5; 15; 17.5 μM final concentration) in triplicate. In the 0 μM solution the antioxidant solution was substituted with acetate buffer (pH 3.0). The FRAP was determined at 600 nm: the absorbance values were plotted as a function of concentration of the sample compounds and that of Trolox for the standard reference data. The FRAP values were calculated as in the ABTS assays, i.e., the slope of the concentration-absorbance lines for the carotenoid derivatives was divided by that for the trolox.
# [5] = 0.3125 μM in PBS from DMSO stock
# [6] = 0.625 μM in PBS from DMSO stock
SMILES,Water Dispersibility (Water dispersibility),TEAC from DMSO [1],TEAC from THF [1],change of UV spectrum with increasing ratio of PBS [2],"mean size (hydrodynamic diameter) [3, 5] [nm]","zeta potential [3, 5] [mV]",PDI ([3]; 0.3125 μM in PBS),"mean size (hydrodynamic diameter) [3, 6] [nm]","zeta potential [3, 6] [mV]",PDI ([3]; 0.625 μM in PBS),mean size (hydrodynamic diameter) ([3]; 1.25 μM in PBS from DMSO stock) [nm],zeta potential ([3]; 1.25 μM in PBS from DMSO stock) [mV],PDI ([3]; 1.25 μM in PBS),zeta potential ([3]; 2.5 μM in PBS from DMSO stock) [mV],zeta potential ([3]; 3.75 μM in PBS from DMSO stock) [mV],mean size (hydrodynamic diameter) ([3]; 5 μM in PBS from DMSO stock) [nm],zeta potential ([3]; 5 μM in PBS from DMSO stock) [mV],PDI ([3]; 5 μM in PBS),FRAP [4],mean size (hydrodynamic diameter) ([3]; 2.5 μM in PBS from DMSO stock) [nm],also measured
"CC1=C(/C=C/C(C)=C/C=C/C(C)=C/C=C/C=C(C)/C=C/C=C(C)/C=C/C(=O)[C@]2(C)C[C@@H](OC(=O)CCC(=O)O)CC2(C)C)C(C)(C)C[C@H](OC(=O)CCC(=O)O)C1 [Compound 9, Capsanthin bissuccinate]",less than 0.6 mg/100 mL,1.66,2.297,did not cause much change,241.5,22.6,0.0186,10.71,20.1,0.0159,28.78,31.0,0.0354,51.3,2.7,19.31,0.0,0.0298,0.189,,
"CC1=C(/C=C/C(C)=C/C=C/C(C)=C/C=C/C=C(C)/C=C/C=C(C)/C=C/C2=C(C)C[C@@H](OC(=O)CCC(=O)O)CC2(C)C)C(C)(C)C[C@H](O)C1 [Compound 11, Zeaxanthin monossuccinate]",less than 0.3 mg/100 mL,0.81,1.056,bathochromic shift,30.98,51.7,0.0256,277.80,123.0,0.0264,25.09,80.5,0.0310,80.6,77.3,150.00,−23.5,0.0297,0.145,32.93,type of aggregates formed ([2]; from THF:aqueous solutions): J-type (head-to-tail) aggregates; PDI ([3]; 2.5 μM in PBS): 0.0420; mean size (hydrodynamic diameter) ([3]; 3.75 μM in PBS from DMSO stock): 17.71 nm; PDI ([3]; 3.75 μM in PBS): 0.1357
"CC1=C[C@H](OC(=O)CCC(=O)O)CC(C)(C)[C@H]1/C=C/C(C)=C/C=C/C(C)=C/C=C/C=C(C)/C=C/C=C(C)/C=C/C1=C(C)C[C@@H](OC(=O)CCC(=O)O)CC1(C)C [Compound 10, Lutein bissuccinate]",1.5 mg/100 mL,1.49,2.356,did not cause much change,453.5,103.0,0.0235,215.4,44.4,0.0320,263.3,89.6,0.0608,0.0,0.0,29.2,20.3,0.0249,0.184,123.1,PDI ([3]; 2.5 μM in PBS): 0.0108; mean size (hydrodynamic diameter) ([3]; 3.75 μM in PBS from DMSO stock): 143.8 nm; PDI ([3]; 3.75 μM in PBS): 0.0121
"COc1ccc2[nH]cc(CCNC(=O)CNC(=O)CCC(=O)OC/C(C)=C/C=C/C(C)=C/C=C/C=C(C)/C=C/C=C(C)/C=C/C3=C(C)CCCC3(C)C)c2c1 [Compound 18, 8′-Apo-β-carotenol-melatonin conjugate]",,3.00,2.891,did not cause much change,148.60,−22.0,0.0199,212.00,−22.8,0.0397,127.50,−24.5,0.0726,−29.5,−31.4,201.10,−37.5,0.1788,0.123,93.29,melting point: 123 to 124 °C; PDI ([3]; 2.5 μM in PBS): 0.1229; mean size (hydrodynamic diameter) ([3]; 3.75 μM in PBS from DMSO stock): 182.80 nm; PDI ([3]; 3.75 μM in PBS): 0.1662
